What all share (format): physicochemical
Data set [1] in a line: Scanning Electron Microscopy (SEM) characterization of crystals.
A short description of data set [2]: Moisture absorption and agglomeration.
The next data set in a line: Bulk density.
Data set [3] can be described thus: Angle of repose (flowability) measured with a 1050/70 type goniometer. As to conditions: slightly ground, smeared on horizontal quartz plate; smaller than 40° meets flowability requirements. How it is done: It is generally believed that the smaller the angle of repose, the better the flowability. When the angle of repose is smaller than 40°, flowability requirements in the production process can be met.

From US10604474B2, “Crystalline form of gamma-aminobutyric acid and preparation method thereof” (NANTONG LICHENG BIOLOGICAL ENGINEERING CO., LTD, priority 2016, dated 2020) come the findings set out here.

Each structure is given as a SMILES string.

With `NCCCC(=O)O` [Embodiment 4, γ-aminobutyric acid], in data set [1], the Particle size distribution entry is “uniform”. In data set [2], the “Susceptibility to absorbing moisture and agglomeration” value (from here on “Susceptibility”) was “not susceptible to absorbing moisture and agglomeration”. For the same compound, in the data set “Bulk density”, the Bulk density is listed as 0.75 g/mL. Moreover, the “Angle of repose (flowability)” value in data set [3] was determined as 36 °.

Take `NCCCC(=O)O` [Present invention, γ-aminobutyric acid]: the Agglomeration entry in data set [2] is “No agglomeration”. This compound came in with a Bulk density in “Bulk density” of 0.80 g/mL. In data set [3], the “Angle of repose (flowability)” value is reported as 35°.

`NCCCC(=O)O` [Embodiment 1, γ-aminobutyric acid]: in data set [1], the Particle size distribution entry is on record as “uniform”. The “Susceptibility” value in data set [2] is “not susceptible to absorbing moisture and agglomeration”. Moreover, the Bulk density in “Bulk density” came to 0.8 g/mL. In addition, the “Angle of repose (flowability)” value in data set [3] is 35 °.

With `NCCCC(=O)O` [Embodiment 5, γ-aminobutyric acid], the Particle size distribution entry in data set [1] was “uniform”. Moreover, in data set [2], the “Susceptibility” value was “not susceptible to absorbing moisture and agglomeration”. In the data set “Bulk density”, this compound showed a Bulk density of 0.7 g/mL. Besides, the “Angle of repose (flowability)” value in data set [3] was found to be 37 °.

As to `NCCCC(=O)O` [CN101928736A, CN103509831A, CN104531795A, CN102242161A] [γ-aminobutyric acid, reference compound], the Agglomeration result in data set [2] is “Serious agglomeration”. Moreover, in “Bulk density”, the Bulk density is 0.65 g/mL. For the same compound, the “Angle of repose (flowability)” value in data set [3] is recorded as 50°.

As for `NCCCC(=O)O` [Embodiment 3, γ-aminobutyric acid], the Particle size distribution entry in data set [1] was “uniform”. The “Susceptibility” value in data set [2] was “not susceptible to absorbing moisture and agglomeration”. For the same compound, the Bulk density in “Bulk density” turned out to be 0.85 g/mL. Moreover, the “Angle of repose (flowability)” value in data set [3] is given as 34 °.

For `NCCCC(=O)O` [Embodiment 2, γ-aminobutyric acid], the Particle size distribution entry in data set [1] was “uniform”. The “Susceptibility” value in data set [2] is “not susceptible to absorbing moisture and agglomeration”. The Bulk density in the data set “Bulk density” was 0.7 g/mL. Further, the “Angle of repose (flowability)” value in data set [3] came out at 37 °.

Turning to `NCCCC(=O)O` [Embodiment 6, γ-aminobutyric acid], the Particle size distribution entry in data set [1] was “uniform”. Moreover, in data set [2], the “Susceptibility” value was “not susceptible to absorbing moisture and agglomeration”. This compound also yielded a Bulk density in “Bulk density” of 0.8 g/mL. Besides, the “Angle of repose (flowability)” value in data set [3] is 35 °.
